From patent publication US20230247992A1, “ARTHROPOD CONTROL COMPOSITION” (Firmenich SA, priority 2020, published 2023)
Read-outs that look alike come from different tables or passages of the source.

Tests used:
Ixodes ricinus = assay: whole plant or invertebrate; format: in vivo; settings: for pest or weed control at 1 µg/cm2, 1 µg/cm2 / pest or weed control at 5 µg/cm2, 5 µg/cm2 / pest or weed control at 25 µg/cm2, 25 µg/cm2: Ixodes ricinus, read-out: mean percentage of ticks affected; for tick response compared with the benchmark IR3535: concentrations tested
Aedes aegypti [1] = assay: in vitro Warm Body assay, substance introduced in the cage air by forced evaporation (spatial repellence); format: in vivo
Procedure: (§1) The controlling effect, repellence & spatial repellence, according to the present invention is determined by testing the Warm Body assay against the yellow fever mosquito, Aedes aegypti Rockefeller strain. […] Observations of controlling efficacy were made on host-seeking females of uniform age, 5 to 10 days old selected as mentioned in the publication mentioned hereinabove. Tested hungry females had access to 10% sugar solution but were not blood-fed. Further information is provided in the accompanying examples.
(§2) The published protocol has been adapted in not manually counting the landing mosquitoes but automatically using an automatic counting software, the switch from Anopheles gambiae to A. aegypti led to a decrease of mosquitoes’ number placed in the tested cage due to the size difference (i.e. 30 mosquitoes instead of 50) and to an increase of lighting as A. aegypti is a diurnal mosquitoes (i.e. 150 lux instead of 4 lux). Further information is provided in the accompanying examples.,
(§3) The controlling effect of the compositions according to the present invention was assessed using an adapted Warm Body assay as defined in Kröber T, Kessler S, Frei J, Bourquin M, Guerin PM. 2010. An in vitro assay for testing mosquito controlling compounds employing a warm body and carbon dioxide as a behavioral activator. J Am Mosq Control Assoc. 26:381-386. In this in-vitro assay the number of mosquito landing on a warm body, simulating an attractive host treated with the tested stimuli, was measured in order to assess the repellence effect.
as §2, with “to Aedes” for “to A.”, “lux).” for “lux). Further information is provided in the accompanying examples.,”
(§4) In addition, since the inventors were interested by assessing spatial repellence added or not to a deterrent effect, the substance was applied using two different technics. Whether, as in Kröber et al. (2010), both deterrent and repellent effect were investigated (i.e. similar effect than most body care applications such as lotion) and the substances was applied on a sandblasted glass Petri dish placed on top of the warm body. Whether only the spatial repellence was investigated (i.e. similar effect than most home care applications such as liquid electric dispenser) and the substance was introduced in the cage space thanks to a forced evaporation system as described in Chappuis C J-F, Niclass Y, Vuilleumier C, Starkenmann C. 2015. Quantitative Headspace Analysis of Selected Odorants from Latrines in Africa and India. Environ. Sci. Technol. 49:6134-6140.
(§5) As stated in Kröber et al. (2010), selected 10-12 days old hungry females, that had ad libitum access to 10% sugar solution but were not blood-fed, were selected for the assay.
The forced evaporation system allows to fill the volume of the cage with stimuli tested, (2-methyl-4-oxo-3-prop-2-ynylcyclopent-2-en-1-yl) 2,2-dimethyl-3-(2-methylprop-1-enyl)cyclopropane-1-carboxylate (prallethrin) and N,N-diethyl-3-methylbenzamide (DEET) being used as benchmarks. In order to limit potential dead volumes in the cage, five flushes of the cage were made before starting the 2 minutes test during which the number of mosquito landings was counted.

Aedes aegypti [2] = assay: in vitro Warm Body assay, substance applied on glass Petri dish on top of the warm body (deterrence and repellence); format: in vivo
Procedure: as §1, §2, §3
as §2, with “to Aedes” for “to A.”, “lux).” for “lux). Further information is provided in the accompanying examples.,”
as §4, §5
On the sandblasted glass Petri dish covering the warm body (28.3 cm^2), 100 µL of the substances diluted at different concentrations in ethanol was applied. The number of mosquito landing on the warm body was counted for each stimuli, N,N-diethyl-3-methylbenzamide (DEET) and ethyl 3-[acetyl(butyl)amino]propanoate (IR3535) being used as benchmarks and pure ethanol as control.

Aedes aegypti [3] = assay: in vivo Arm-in-cage assay on human volunteers; settings: maintained for more than 4h (FIG. 3)
Procedure: The controlling effect, repellence & spatial repellence, according to the present invention is also determined according to an arm in the box method adapted from the WHO Guidelines for efficacy testing of mosquito repellents for human skin (WHO/CDS/NTD/WHOPES/2009.4). […] Further information is provided in the accompanying examples.
The Arm in the box method was adapted from the WHO Guidelines for efficacy testing of mosquito repellents for human skin (WHO/CDS/NTD/WHOPES/2009.4). The readiness of 100 hungry female mosquitoes A. aegypti to probe is assessed by inserting an untreated arm into the cage (40×40×40 cm) for 30 seconds (negative control) three times (once at the beginning, once at the fourth hour and once at the eighth hour), to determine probing activity. Then, the product is applied onto the skin of the forearm of a human volunteer (1 mL per 600 cm^2) and after 5 minutes, this arm is inserted into the cage and exposed for 3 minutes. The assay take place in temperature (27±2° C.) and humidity (80±10%RH) regulated room on three different volunteers.
Arm-in-cage test is a compulsory assay for most biocide registrations to assess the efficacy of a substance. It is a very challenging test as the treated arm of a volunteer is being placed in a space containing a density of […] blood hungry mosquitoes / m^3 of air.

[4] = 0.0017 µg/L air, without substance 54.7±3.2
[5] = 0.017 µg/L air, without substance 54.7±3.2
[6] = 0.17 µg/L air, without substance 54.7±3.2
[7] = 1.7 µg/L air, without substance 54.7±3.2
[8] = 17 µg/L air, without substance 54.7±3.2
[9] = 0.04% in ethanol, ethanol control 59.3±6.9 landings
[10] = 1% in ethanol, ethanol control 59.3±6.9 landings
[11] = […] in ethanol, ethanol control 59.3±6.9 landings
[12] = 0.0017 µg/L air, without substance 56.0±3.6
[13] = 0.017 µg/L air, without substance 56.0±3.6
[14] = 0.17 µg/L air, without substance 56.0±3.6
[15] = 1.7 µg/L air, without substance 56.0±3.6
[16] = 17 µg/L air, without substance 56.0±3.6
[17] = 0.04% in ethanol, ethanol control 67.1±9.1 landings
[18] = 1% in ethanol, ethanol control 67.1±9.1 landings
[19] = […] in ethanol, ethanol control 67.1±9.1 landings

| Compound | tick response compared with the benchmark IR3535 (Ixodes ricinus) | number of mosquitoes landing within 2 minutes on the warm body, air in the cage saturated with stimulus (Aedes aegypti [1]; [4]) | number of mosquitoes landing within 2 minutes on the warm body, air in the cage saturated with stimulus (Aedes aegypti [1]; [5]) | number of mosquitoes landing within 2 minutes on the warm body, air in the cage saturated with stimulus (Aedes aegypti [1]; [6]) | number of mosquitoes landing within 2 minutes on the warm body, air in the cage saturated with stimulus (Aedes aegypti [1]; [7]) | number of mosquitoes landing within 2 minutes on the warm body, air in the cage saturated with stimulus (Aedes aegypti [1]; [8]) | number of mosquitoes landing within 2 minutes on the warm body (Aedes aegypti [2]; [9]) | number of mosquitoes landing within 2 minutes on the warm body (Aedes aegypti [2]; [10]) | number of mosquitoes landing within 2 minutes on the warm body (Aedes aegypti [2]; [11]) | pest or weed control at 1 µg/cm2, 1 µg/cm2 (Ixodes ricinus) | pest or weed control at 5 µg/cm2, 5 µg/cm2 (Ixodes ricinus) | pest or weed control at 25 µg/cm2, 25 µg/cm2 (Ixodes ricinus) | other results |
| --- | --- | --- | --- | --- | --- | --- | --- | --- | --- | --- | --- | --- | --- |
| CCCCCC1CCC(=O)O1 (stereo not drawn) [5-pentyloxolan-2-one] | response similar to the benchmark IR3535 | 14.7 | 23.0 | 15.3 | 7.7 | 2.0 | 16.0 | 1.0 | 76.0 |  |  |  | pest or weed control at 1 µg/cm2, 1 µg/cm2 (Ixodes ricinus; 1 µg/cm^2, diluted in ethanol, ethanol control 1.0±1.2%): 31%; pest or weed control at 5 µg/cm2, 5 µg/cm2 (Ixodes ricinus; 5 µg/cm^2, diluted in ethanol, ethanol control 1.0±1.2%): 83%; pest or weed control at 25 µg/cm2, 25 µg/cm2 (Ixodes ricinus; 25 µg/cm^2, diluted in ethanol, ethanol control 1.0±1.2%): 100% |
| CCCCCC1CCCC(=O)O1 (stereo not drawn) [6-pentyloxan-2-one] |  |  |  |  |  |  |  |  |  |  |  |  | number of mosquitoes landing within 2 minutes on the warm body, air in the cage saturated with stimulus (Aedes aegypti [1]; 0.0017 µg/L air, without substance 54.1±4.9): 43.0; number of mosquitoes landing within 2 minutes on the warm body, air in the cage saturated with stimulus (Aedes aegypti [1]; 0.017 µg/L air, without substance 54.1±4.9): 4.0; number of mosquitoes landing within 2 minutes on the warm body, air in the cage saturated with stimulus (Aedes aegypti [1]; 0.17 µg/L air, without substance 54.1±4.9): 28.0; number of mosquitoes landing within 2 minutes on the warm body, air in the cage saturated with stimulus (Aedes aegypti [1]; 1.7 µg/L air, without substance 54.1±4.9): 0.5; number of mosquitoes landing within 2 minutes on the warm body, air in the cage saturated with stimulus (Aedes aegypti [1]; 17 µg/L air, without substance 54.1±4.9): 0.0; repellence in the arm-in-cage test (Aedes aegypti [3]): above 75%; number of mosquitoes landing within 2 minutes on the warm body (Aedes aegypti [2]; 0.04% in ethanol, ethanol control 67.0±8.8 landings): 7.0; number of mosquitoes landing within 2 minutes on the warm body (Aedes aegypti [2]; 1% in ethanol, ethanol control 67.0±8.8 landings): 2.0; number of mosquitoes landing within 2 minutes on the warm body (Aedes aegypti [2]; […] in ethanol, ethanol control 67.0±8.8 landings): 90.0 |
| CC(C)=CCC/C(C)=C/C=O [(2E)-3,7-dimethylocta-2,6-dienal] |  | 25.3 | 15.7 | 15.3 | 14.7 | 23.0 | 16.0 | 2.0 | 89.0 | 15% | 0% | 58% | decrease of landings (Aedes aegypti [1]; identical at all concentrations tested): ~ 67% |
| CCC/C=C1\OC(=O)c2ccccc21 [(3Z)-3-butylidene-2-benzofuran-1-one] | greater tick repellency |  |  |  |  |  |  |  |  | 77% | 100% | 100% | ticks affected (Ixodes ricinus; intermediate dose tested (0.2%)): all tested ticks were affected; fraction of the ticks affected (Ixodes ricinus; lowest dose tested (0.04%)): more than ¾; number of mosquitoes landing within 2 minutes on the warm body, air in the cage saturated with stimulus (Aedes aegypti [1]; [12]): 59.0; number of mosquitoes landing within 2 minutes on the warm body, air in the cage saturated with stimulus (Aedes aegypti [1]; [13]): 31.5; number of mosquitoes landing within 2 minutes on the warm body, air in the cage saturated with stimulus (Aedes aegypti [1]; [14]): 17.0; number of mosquitoes landing within 2 minutes on the warm body, air in the cage saturated with stimulus (Aedes aegypti [1]; [15]): 11.0; number of mosquitoes landing within 2 minutes on the warm body, air in the cage saturated with stimulus (Aedes aegypti [1]; [16]): 37.0; repulsion (Aedes aegypti [1]; doses of 1.7 and/or 17 µg/L in air): < 90%; number of mosquitoes landing within 2 minutes on the warm body (Aedes aegypti [2]; [17]): 9.0; number of mosquitoes landing within 2 minutes on the warm body (Aedes aegypti [2]; [18]): 1.0; number of mosquitoes landing within 2 minutes on the warm body (Aedes aegypti [2]; [19]): 54.0 |
| C=C(C)[C@@H]1CC=C(C)C(=O)C1 [(5R)-2-methyl-5-prop-1-en-2-ylcyclohex-2-en-1-one] |  | 20.0 | 27.0 | 2.0 | 2.0 | 2.0 | 16.0 | 3.0 | 24.0 | 50% | 17% | 57% |  |
| C/C=C/C(=O)C1C(C)=CCCC1(C)C (stereo not drawn) [(E)-1-(2,6,6-trimethylcyclohex-2-en-1-yl)but-2-en-1-one] |  |  |  |  |  |  |  |  |  | 13% | 6% | 83% | number of mosquitoes landing within 2 minutes on the warm body, air in the cage saturated with stimulus (Aedes aegypti [1]; [12]): 6.0; number of mosquitoes landing within 2 minutes on the warm body, air in the cage saturated with stimulus (Aedes aegypti [1]; [13]): 11.0; number of mosquitoes landing within 2 minutes on the warm body, air in the cage saturated with stimulus (Aedes aegypti [1]; [14]): 4.0; number of mosquitoes landing within 2 minutes on the warm body, air in the cage saturated with stimulus (Aedes aegypti [1]; [15]): 4.0; number of mosquitoes landing within 2 minutes on the warm body, air in the cage saturated with stimulus (Aedes aegypti [1]; [16]): 1.0; repulsion (Aedes aegypti [1]; at all five tested concentrations): more than 80%; landings in 2 minutes (Aedes aegypti [1]; dose of 0.17 µg/L of air): less than five; number of mosquitoes landing within 2 minutes on the warm body (Aedes aegypti [2]; [17]): 34.0; number of mosquitoes landing within 2 minutes on the warm body (Aedes aegypti [2]; [18]): 9.0; number of mosquitoes landing within 2 minutes on the warm body (Aedes aegypti [2]; [19]): 70.0 |
| O=c1ccc2ccccc2o1 [chromen-2-one] | response similar to the benchmark IR3535 | 36.0 | 3.0 | 10.0 | 1.0 | 0.0 | 0.0 | 1.0 | 118.0 | 27% | 71% | 80% |  |
